Measurements as given in patent US7135466B2 (Kirin Beer Kabushiki Kaisha, priority 1999, dated 2006).

Biological target: T1, c-kit (Homo sapiens, UniProt P10721)
T1 construct: MO7e (human megakaryocytic leukemia cell line) which had been arrested for 20 hr; endogenous in cells; host or cells: MO7e human megakaryocytic leukemia cell line
Assay: Inhibitory activity against c-kit autophosphorylation (MO7e cells, h-SCF)
Type: cell-based
Settings: MO7e cells, 50 ng/ml h-SCF; read-out: c-kit IC50
Description: Inhibitory Activity Against c-kit Autophosphorylation
MO7e (human megakaryocytic leukemia cell line) which had been arrested for 20 hr was seeded into 96 well plates at an amount of 2×10^5 per well. A solution of a test compound in DMSO was added, and a reaction was then allowed to proceed for one hr. Thereafter, the cells were stimulated by 50 ng/ml of h-SCF for 5 min, followed by replacement with lysate buffer to solubilize the cells.
Next, the solubilized cell sap was transferred to a 96-well plate with an anti-phosphotyrosine antibody (PY-20) previously immobilized thereon, and a reaction was allowed to proceed. Thereafter, the cells were reacted with an anti-c-kit antibody (c-19, Santa Cruz) as a primary antibody and were labelled with GAR (anti-rabbit IgG, horseradish peroxidase, Amersham) as a secondary antibody. Color development was then carried out in a peroxidase color development kit (Sumitomo Bakelite Co., Ltd.), and the absorbance was measured at a wavelength of 450 nm.

T1 sequence (P10721 26-976): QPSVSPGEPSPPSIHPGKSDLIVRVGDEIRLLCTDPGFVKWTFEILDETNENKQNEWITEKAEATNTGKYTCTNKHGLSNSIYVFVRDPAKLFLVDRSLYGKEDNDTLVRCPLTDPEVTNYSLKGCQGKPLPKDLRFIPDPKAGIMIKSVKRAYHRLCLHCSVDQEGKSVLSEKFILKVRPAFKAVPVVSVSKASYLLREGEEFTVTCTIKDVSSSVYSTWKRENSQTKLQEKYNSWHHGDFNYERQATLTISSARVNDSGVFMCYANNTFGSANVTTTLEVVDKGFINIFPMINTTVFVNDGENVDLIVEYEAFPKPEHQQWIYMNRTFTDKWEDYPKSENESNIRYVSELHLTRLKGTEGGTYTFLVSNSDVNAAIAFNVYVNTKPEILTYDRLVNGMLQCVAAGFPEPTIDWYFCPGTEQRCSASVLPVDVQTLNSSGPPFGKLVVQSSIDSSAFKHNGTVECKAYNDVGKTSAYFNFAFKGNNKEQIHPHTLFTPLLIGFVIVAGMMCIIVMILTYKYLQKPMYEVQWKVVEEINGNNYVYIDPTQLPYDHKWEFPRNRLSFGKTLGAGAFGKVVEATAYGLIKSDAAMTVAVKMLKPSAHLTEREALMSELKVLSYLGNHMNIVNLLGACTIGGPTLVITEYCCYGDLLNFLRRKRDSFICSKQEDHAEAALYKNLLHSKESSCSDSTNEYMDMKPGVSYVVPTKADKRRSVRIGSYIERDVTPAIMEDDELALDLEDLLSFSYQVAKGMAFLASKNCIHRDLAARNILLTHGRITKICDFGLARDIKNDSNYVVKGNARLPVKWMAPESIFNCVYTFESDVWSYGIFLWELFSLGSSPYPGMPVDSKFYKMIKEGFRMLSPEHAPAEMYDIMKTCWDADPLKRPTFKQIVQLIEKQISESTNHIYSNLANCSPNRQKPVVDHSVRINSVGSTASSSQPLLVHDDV

Row | IC50 [nM] | SMILES
1 | 365 | COc1cc2nccc(Oc3ccc(OCC(=O)Nc4ccccc4C)cc3)c2cc1OC [Example 782, N1-(2-Methylphenyl)-2-{4-[(6,7-dimethoxy-4-quinolyl)oxy]phenoxy}acetamide]
2 | 154 | COc1cc2nccc(Oc3ccc(OCC(=O)Nc4ccc(Cl)cc4)cc3)c2cc1OC [Example 789, N1-(4-Chlorophenyl)-2-{4-[(6,7-dimethoxy-4-quinolyl)oxy]phenoxy}acetamide]

Same assay, conditions: MO7e cells, h-SCF 50 ng/ml; read-out: c-kit IC50

Row | IC50 [nM] | SMILES
3 | 72 | COc1cccc(COC(=O)Nc2ccc(Oc3ccnc4cc(OC)c(OC)cc34)cc2)c1 [Example 226, 3-Methoxybenzyl N-{4-[(6,7-dimethoxy-4-quinolyl)oxy]phenyl}carbamate]

Same assay, conditions: MO7e cells, h-SCF stimulation; read-out: c-kit IC50

Row | SMILES | IC50 [nM]
4 | COc1cc2nccc(Oc3ccc(NCCOc4ccccc4C)cc3)c2cc1OC [Example 852, N-{4-[(6,7-Dimethoxy-4-quinolyl)oxy]phenyl}-N-[2-(2-methylphenoxy)ethyl]amine] | 179
5 | COc1cc2nccc(Oc3ccc(NC(=S)NC(=O)c4ccccc4)cc3C)c2cc1OC [Example 1109, N-Benzoyl-N′-{4-[(6,7-dimethoxy-4-quinolyl)oxy]-3-methylphenyl}thiourea] | 353
6 | CCOc1ccc(C(=O)NC(=S)Nc2ccc(Oc3ccnc4cc(OC)c(OC)cc34)c(Cl)c2)cc1 [Example 992, N-{3-Chloro-4-[(6,7-dimethoxy-4-quinolyl)oxy]phenyl}-N′-(4-ethoxybenzoyl)thiourea] | 766
7 | COc1cc2nccc(Oc3ccc(SCCOc4cccc(F)c4)cc3)c2cc1OC [Example 821, 4-(4-{[2-(3-Fluorophenoxy)ethyl]sulfanyl}phenoxy)-6,7-dimethoxyquinoline] | 184
8 | COc1cc2nccc(Oc3ccc(NC(=S)NC(=O)c4ccc(C)cc4)cc3Cl)c2cc1OC [Example 977, N-{3-Chloro-4-[(6,7-dimethoxy-4-quinolyl)oxy]phenyl}-N′-(4-methylbenzoyl)thiourea] | 824
9 | COc1cc2nccc(Oc3ccc(NCCOc4ccc(Cl)cc4Cl)cc3)c2cc1OC [Example 851, N-[2-(2,4-Dichlorophenoxy)ethyl]-N-{4-[(6,7-dimethoxy-4-quinolyl)oxy]phenyl}amine] | 75
10 | COc1cc2nccc(Oc3ccc(NC(=S)NC(=O)c4ccccc4Br)cc3)c2cc1OC [Example 900, N-(2-Bromobenzoyl)-N′-{4-[(6,7-dimethoxy-4-quinolyl)oxy]phenyl}thiourea] | 372
11 | COc1cc2nccc(Oc3ccc(NC(=S)NC(=O)C4CCCC4)c(F)c3)c2cc1OC [Example 1063, N-Cyclopentylcarbonyl-N′-{4-[(6,7-dimethoxy-4-quinolyl)oxy]-2-fluorophenyl}thiourea] | 491
12 | COc1ccc(OCCSc2ccc(Oc3ccnc4cc(OC)c(OC)cc34)cc2)cc1 [Example 813, 6,7-Dimethoxy-4-(4-{[2-(4-methoxyphenoxy)ethyl]sulfanyl}phenoxy)quinoline] | 402
13 | COc1cc2nccc(Oc3ccc(SCCCOc4cccc(C)c4)cc3)c2cc1OC [Example 841, 6,7-Dimethoxy-4-(4-{[3-(3-methylphenoxy)propyl]sulfanyl}phenoxy)quinoline] | 118
14 | COc1cc2nccc(Oc3ccc(NCCOc4c(F)cccc4F)cc3)c2cc1OC [Example 857, N-[2-(2,6-Difluorophenoxy)ethyl]-N-{4-[(6,7-dimethoxy-4-quinolyl)oxy]phenyl}amine] | 195
15 | COc1cc2nccc(Oc3ccc(SCCOc4ccccc4C(C)C)cc3)c2cc1OC [Example 815, 4-(4-{[2-(2-Isopropylphenoxy)ethyl]sulfanyl}phenoxy)-6,7-dimethoxyquinoline] | 180

Further lines, results first:

Row | IC50 [nM] | SMILES
16 | 572 | COc1cc2nccc(Oc3ccc(NC(=S)NC(=O)c4ccccc4Br)c(F)c3)c2cc1OC [Example 907, N-(2-Bromobenzoyl)-N′-{4-[(6,7-dimethoxy-4-quinolyl)oxy]-2-fluorophenyl}thiourea]
17 | 563 | COc1cc2nccc(Oc3ccc(NC(=S)NC(=O)c4ccccc4Cl)cc3F)c2cc1OC [Example 913, N-(2-Chlorobenzoyl)-N′-{4-[(6,7-dimethoxy-4-quinolyl)oxy]-3-fluorophenyl}thiourea]
18 | 830 | COc1cc2nccc(Oc3ccc(NC(=S)NC(=O)c4cccc(F)c4)cc3Cl)c2cc1OC [Example 948, N-{3-Chloro-4-[(67-dimethoxy-4-quinolyl)oxy]phenyl}-N′-(3-fluorobenzoyl)thiourea]
19 | 299 | COc1cc2nccc(Oc3ccc(NC(=S)NC(=O)c4ccccc4Br)cc3F)c2cc1OC [Example 914, N-(2-Bromobenzoyl)-N′-{4-[(6,7-dimethoxy-4-quinolyl)oxy]-3-fluorophenyl}thiourea]

Same assay, conditions: Mo7e, figure in parentheses in −( ); at 1000 nM

Row | SMILES | inhibition at 1 µM [%]
20 | CCCCCCCCCCCCCC(=O)NC(=S)Nc1ccc(Oc2ccnc3cc(OC)c(OC)cc23)cc1F [Example 1076, N-{4-[(6,7-Dimethoxy-4-quinolyl)oxy]-2-fluorophenyl}-N′-tetradecanoylthiourea] | 7
21 | COc1cc2nccc(Oc3ccc(S(=O)(=O)CCOc4ccccc4C(C)C)cc3)c2cc1OC [Example 836, 4-[(6,7-Dimethoxy-4-quinolyl)oxy]phenyl [2-(2-isopropylphenoxy)ethyl]sulfone] | 39
22 | CCc1ccc(C(=O)NC(=S)Nc2ccc(Oc3ccnc4cc(OC)c(OC)cc34)cc2F)cc1 [Example 993, N-{4-[(6,7-Dimethoxy-4-quinolyl)oxy]-2-fluorophenyl}-N′-(4-ethylbenzoyl)thiourea] | 35
23 | COc1cc2ncnc(Oc3ccc(SCCCOc4cccc(C)c4)cc3)c2cc1OC [Example 846, 6,7-Dimethoxy-4-(4-{[3-(3-methylphenoxy)propyl]sulfanyl}phenoxy)quinazoline] | 33

Results, then the compound that gave them:

Row | inhibition at 1 µM [%] | SMILES
24 | 16 | COc1cc2nccc(Oc3ccc(NC(=S)NC(=O)c4ccccc4OC)cc3F)c2cc1OC [Example 916, N-{4-[(6,7-Dimethoxy-4-quinolyl)oxy]-3-fluorophenyl}-N′-(2-methoxybenzoyl)thiourea]
25 | 15 | COc1cc2nccc(Oc3ccc(NC(=S)NC(=O)c4ccc(Cl)cc4)c(C)c3C)c2cc1OC [Example 1082, N-(4-Chlorobenzoyl)-N′-{4-[(6,7dimethoxy-4-quinolyl)oxy]-2,3-dimethylphenyl}thiourea]
26 | 22 | COc1cc2nccc(Oc3ccc(NC(=S)NC(=O)c4ccc(F)cc4F)cc3Cl)c2cc1OC [Example 1208, N-{3-Chloro-4-[(6,7-dimethoxy-4-quinolyl)oxy]phenyl}-N′-(2,4-difluorobenzoyl)thiourea]
27 | 22 | COc1cc2nccc(Oc3ccc(NC(=S)NC(=O)c4ccc(F)cc4F)cc3F)c2cc1OC [Example 1013, N-(2,4-Difluorobenzoyl)-N′-{4-[(6,7-dimethoxy-4-quinolyl)oxy]-3-fluorophenyl}thiourea]
28 | 23 | COc1cc2nccc(Oc3ccc(NC(=S)NC(=O)c4ccc(F)cc4F)c(C)c3C)c2cc1OC [Example 1088, N-(2,4-Difluorobenzoyl)-N′-{4-[(6,7-dimethoxy-4-quinolyl)oxy]-2,3-dimethylphenyl}thiourea]

Same assay, conditions: Mo7e, figure within parentheses in −( ) or >1000( ); at 1000 nM

Row | inhibition at 1 µM [%] | SMILES
29 | 30 | COc1cc2ncnc(Oc3ccc(NC(=O)NCCN4CCCC4)cc3)c2cc1OC [Example 621, N-{4-[(6,7-Dimethoxy-4-quinazolinyl)oxy]phenyl}-N′-(2-tetrahydro-1H-1-pyrrolylethyl)urea]
